# Source: article PMC8117302 (Breast Cancer Research : BCR, 2021)
# Several values for one entry are separate records, joined by “and”; a condition that tells them apart may be missing. Equal values may be shown once.
# Assays:
# MCF7 Y537S ERα tumors [1] = test: MIND xenograft combination study, MCF7 Y537S ERα, bone histology; type: in vivo, NSG mice; conditions: for tumor metastases to the bone (H&E and IHC staining of bone marrow): Y537S model, 5 mg/kg LAS, in contrast to vehicle control, 5 mg/kg
# MCF7 WT ERα tumors = test: MIND xenograft dose-response study, MCF7 WT ERα; type: in vivo, NSG mice; conditions: vehicle 4%, p = NS
# MCF7 D538G ERα tumors = test: MIND xenograft dose-response study, MCF7 D538G ERα; type: in vivo, NSG mice; conditions: for liver metastases (H&E): D538G mice
# MCF7 Y537S ERα tumors [2] = test: MIND xenograft dose-response study, MCF7 Y537S ERα; type: in vivo, NSG mice; conditions: 5 and 10 mg/kg s.c. 5 days/week, at sacrifice 70 days after treatment initiation, vs vehicle
# Protocol: Mouse studies were performed in compliance with an approved Institutional Animal Care and Use Committee protocol at the University of Chicago. To better mimic the progression of ductal lesions to invasive disease, a mammary intraductal (MIND) mouse model was used. NSG (NOD.Cg-Prkdc^scid Il2rg^tm1Wjl/SzJ) mice (Jackson Laboratories) were anesthetized by intraperitoneal injections with a ketamine/xylazine (100/5 mg/kg) mixture in PBS prior to cancer cell injections. Single-cell suspensions of 250,000 WT or mutant MCF7 cells were injected in the mammary ducts of inguinal glands as previously described. Tumor cell growth in situ was followed once weekly or biweekly after injection via luminescence imaging with a Xenogen IVIS 200 instrument in the Integrated Small Animal Imaging Research Resource at the University of Chicago. […] Effects were evaluated in the models expressing WT, Y537S, and D538G ERα for monotherapies, and in the model expressing Y537S ERα for combination therapies.
# Treatment was initiated 2 to 3 weeks (dose-response study) or at day 20 (combination study) after cancer cell injections. […] Metastases were evaluated with ex vivo imaging of excised long bones, brains, lungs, and livers and quantified by luciferase activity for the combination study.
# Tissues were harvested and fixed in formalin. […] Lung and bone metastases were analyzed using the NSI-Elements software from Nikon. […]
# breast cancer = conditions: PEARL trial, 5 years of LAS; cited from earlier work
# [3] = palbociclib 35 mg/kg, 12 legs examined
# [4] = palbociclib 70 mg/kg, 12 legs examined
# [5] = fulvestrant 5 mg/mouse, 10 legs examined
# [6] = lasofoxifene 5 mg/kg, 10 legs examined
# [7] = lasofoxifene 10 mg/kg, 10 legs examined
structure (smiles),measurement,setting,value
CC(=O)c1c(C)c2cnc(Nc3ccc(N4CCNCC4)cn3)nc2n(C2CCCC2)c1=O [Palbociclib],Number of legs with metastases,MCF7 Y537S ERα tumors [1]; [3],none
same,Number of legs with necrosis,MCF7 Y537S ERα tumors [1]; [3],none
same,Number of legs with metastases,MCF7 Y537S ERα tumors [1]; [4],none
same,Number of legs with necrosis,MCF7 Y537S ERα tumors [1]; [4],none
C[C@]12CC[C@@H]3c4ccc(O)cc4C[C@@H](CCCCCCCCC[S+]([O-])CCCC(F)(F)C(F)(F)F)[C@H]3[C@@H]1CC[C@@H]2O (stereo partly shown) [Fulvestrant],average percent area of lung metastasis,MCF7 WT ERα tumors; 5 mg/mouse s.c. once per week,1%
same,liver metastases (H&E),MCF7 D538G ERα tumors; FUL 5 mg/mouse s.c. once per week,no liver metastases were observed
same,Number of legs with metastases,MCF7 Y537S ERα tumors [1]; [5],2
same,Number of legs with necrosis,MCF7 Y537S ERα tumors [1]; [5],1
same,% necrosis,"MCF7 Y537S ERα tumors [1]; fulvestrant 5 mg/mouse, leg with necrosis",18%
same,"Metastases, % of bone marrow, for each leg with metastasis","MCF7 Y537S ERα tumors [1]; fulvestrant 5 mg/mouse, listed as FUL",1% and 10%
Oc1ccc2c(c1)CC[C@H](c1ccccc1)[C@@H]2c1ccc(OCCN2CCCC2)cc1 [Lasofoxifene],average percent area of lung metastasis,"MCF7 WT ERα tumors; all tested doses (1, 5, 10 mg/kg s.c. 5 days/week)",0.9–1.5%
same,Reduction in tumor weight,MCF7 Y537S ERα tumors [2],approximately 60%
same,liver metastases (H&E),"MCF7 D538G ERα tumors; LAS 1, 5, 10 mg/kg s.c. 5 days/week",no liver metastases were observed
same,Reduction in tumor weight,"MCF7 D538G ERα tumors; D538G, 5 and 10 mg/kg s.c. 5 days/week, at sacrifice 70 days after treatment initiation, vs vehicle",~50%
same,tumor metastases to the bone (H&E and IHC staining of bone marrow),MCF7 Y537S ERα tumors [1],No metastases were observed
same,tumor metastases to the bone (H&E and IHC staining of bone marrow),MCF7 Y537S ERα tumors [1]; listed as LAS,completely blocked
same,Number of legs with metastases,MCF7 Y537S ERα tumors [1]; [6],none
same,Number of legs with necrosis,MCF7 Y537S ERα tumors [1]; [6],none
same,Number of legs with metastases,MCF7 Y537S ERα tumors [1]; [7],none
same,Number of legs with necrosis,MCF7 Y537S ERα tumors [1]; [7],none
same,reduced risk for invasive ER+ breast cancer,breast cancer,83%
same,reduced risk for total breast cancers,breast cancer,79%
